The values that follow come from patent publication US4339440A, “Enkephalin analogs and a process for the preparation thereof” (priority 1980, dated 1982).

In one assay the test system is mouse vas deferens (MVD). The settings on record: literature comparison of GPI and MVD preparations; cited from earlier work.
The next assay relates to anesthetized cats. Nature of the assay: Cardiovascular effects in cats anesthetized with pentobarbital (blood pressure, heart rate, vasomotor reflex elicited by carotis occlusion). It is filed as in vivo. The protocol:
In addition to the effects on the blood pressure and heart rate, the actions on the vasomotor reflex elicited by carotis occlusion, were also studied. […] The duration of the former effects was 20-25 min., while that of the latter was 40-60 min. […] It is noteworthy that the reference compound morphine […] hypotension of similar magnitude produced by 0.1 mg/kg of peptides only in doses higher than 1.0 mg/kg (Table 2).
(a) Cats of both sexes, weighing 3000-4000 g, anesthetized with 35 mg/kg pentobarbital, i.p.
(b) C.O.: Inhibition of vasomotor reflex elicited by carotis occlusion;

Square brackets hold non-standard residues; d marks the D form. Ends that are not written are not given here.

With “β-Endorphine: β-Endorphine of natural occurrence (a 31-membered polypeptide) (YGGFMTSEKSQTPLVTLFKNAIIKNAYKKGE; Beta-endorphin; UniProt P01189 237-267, looked up)”, the “Activity on MVD compared with GPI (in words)” value with mouse vas deferens (MVD) was “equally active on GPI and MVD”.

Take Y[dM]GFP-NH2: the “Activity on MVD compared with GPI (in words)” value in the assay with mouse vas deferens (MVD) is “the same level of activity on both preparations”.

Tyr-D-Ala-Gly-MePhe-Met(O)-ol: in the assay with mouse vas deferens (MVD), the “Activity on MVD compared with GPI (in words)” value is given as “twice as active on GPI as on MVD”.

With Tyr-D-Ala-Gly-Phe-D-Leu, the “Activity on MVD compared with GPI (in words)” value in the assay with mouse vas deferens (MVD) is on record as “more active on MVD than on GPI”.

With `CN1CC[C@]23c4c5ccc(O)c4O[C@H]2[C@@H](O)C=C[C@H]3[C@H]1C5` [Morphine, morphine], the “Activity on MVD compared with GPI (in words)” value in the assay on mouse vas deferens (MVD) was “higher activity on GPI”. In the assay on anesthetized cats (0.2 mg/kg i.v.), the “Decrease of heart rate” value was “.phi”, the “Fall in blood pressure” value amounted to 6.7 ± 2.1 mm Hg and the “Inhibition of C.O. (vasomotor reflex elicited by carotis occlusion)” value (“Inhibition” for short) was “.phi”. For the same molecule, in the assay with anesthetized cats (1.0 mg/kg i.v.), the “Decrease of heart rate” value is listed as 10.2 ± 2.3 beat/min, the “Fall in blood pressure” value turned out to be 16.7 ± 3.2 mm Hg and the “Inhibition” value was “+ (inhibition is smaller than 50%)”. In the assay with anesthetized cats (5.0 mg/kg i.v.), the “Decrease of heart rate” value was 16.7 ± 3.5 beat/min, the “Fall in blood pressure” value is on record as 33.6 ± 6.7 mm Hg and the “Inhibition” value is reported as “++ (inhibition is higher than 50%)”. The “Dose eliciting hypotension of similar magnitude to that produced by 0.1 mg/kg of peptides” value with anesthetized cats (i.v.) is “higher than 1.0 mg/kg”.
